# Laboratory results published in publication PMC8063737 (The Journal of Biological Chemistry, 2021).
# “Also recorded” adds a separate entry of the source. Where two headings read alike, the source gives them in different places.
# What was measured:
# [1] = test system: equimolar PFA.S1 (2 μM) complex; assay: Effect of nucleotide analogs on PFA-S1 fluorescence; assay type: biochemical, bovine; details: 10 mM PPi
# Procedure: The ten compounds were obtained from Target Molecule Corp and stored at –20 °C as 10 mM stock solutions in DMSO until use. OM and Mava were obtained from Selleck Chemicals and stored as 10 mM stock solutions at –20 °C until use. Sodium vanadate ([…]) and potassium pyrophosphate (PPi) were obtained from Sigma-Aldrich, and stock solutions of 50 mM and 1 M, respectively, were prepared as described previously ([36]). […] To study the effect of pyrophosphate, 10 mM PPi was added to an equimolar PFA.S1 (2 μM) complex. These ligand concentrations were saturating.
# (§1) Fluorescence spectra of 2 μM PFA in F-Mg buffer were acquired with a Cary spectrophotometer. The sample was placed in a cuvette in a temperature-controlled holder and excited with a Xenon flash lamp at 365 nm with 5 nm slit width. Emission fluorescence intensity was acquired and averaged for 30 s at 407 nm with a 10 nm slit width. A final concentration of 2 μM PFA in F-actin buffer was used. Fluorescence intensity (F) was corrected for each compound's emission at 407 nm.
# [2] = molecular target: T1, rigor PFA.S1 complex (cardiac myosin S1) (Oryctolagus cuniculus, UniProt P68135); assay: Stopped-flow ATP-induced dissociation of actin-S1 complex (ATP binding and isomerization); assay type: biochemical, bovine; details: for overall category of compound effect: severe if at least one parameter (K1 or k+2) was affected >3-fold; for decrease in rate constant k+2 for isomerization versus control: hyperbolic fits of kobs1 versus [MgATP]; for effect on K1 (shown as 1/K1), category: versus control
# T1 construct: Rabbit skeletal F-actin was prepared as described previously from acetone powder; tissue Pelfreez Biologicals (bovine left ventricular muscle); host or cells: rabbit skeletal muscle (actin); bovine left ventricular muscle (myosin S1)
# Procedure: To determine the equilibrium constant K1 for the formation of the collision complex, A.M.T, the rigor complex of PFA and myosin-S1 complex was formed in one syringe and the Mg.ATP placed in another syringe. […] (Equation 10). The rate constant k+2 was determined from hyperbolic plots of kobs1 versus [MgATP] […] The association equilibrium constant K1 was determined from the ratio of K1k+2/k+2.
# Experiments were performed at 25 °C with filtered and degassed solutions. The instrument dead time for single-mix experiments was 1.3 ms. Samples were excited at 365 nm, and pyrene emission fluorescence was acquired with a 2 mm path length and 400 nm long-pass filter. Data analysis was done using the program, ORIGIN (OriginLab Corp).
# K1 was determined by mixing the rigor complex of PFA.S1 (A.M) (final concentration of 0.05 μM) with varying final concentrations of MgATP (12.5–1000 μM) in F-Mg buffer in the absence and presence of the compounds, whereby the PFA.compound complex was first made, then mixed with S1, and placed in one syringe, and MgATP solution was placed in the other syringe. The transient curves were fitted to rate constants, kobs, fast and kobs, slow, and with corresponding amplitudes A1 and A2.
# [3] = molecular target: T2, PFA.C.S1 complex (Oryctolagus cuniculus, UniProt P68135); assay: Chase experiment: dissociation of S1 from rigor actin-S1 complex by unlabeled F-actin; assay type: biochemical, bovine; details: 20-fold unlabeled F-actin chase, 0.25 μM PFA.S1, 20 min
# T2 construct: Rabbit skeletal F-actin was prepared as described previously from acetone powder; tissue Pelfreez Biologicals (bovine left ventricular muscle); host or cells: rabbit skeletal muscle (actin); bovine left ventricular muscle (myosin S1)
# Excerpt: The transient curve was best fitted to a double exponential equation to yield a fast and slow rate constant of 0.01 ± 5E-4 s^−1 and 0.003 ± 4E-4 s^−1, respectively.
# [4] = molecular target: T3, pyrene-labeled F-actin (PFA) (Oryctolagus cuniculus, UniProt P68135); assay: Compound binding to pyrene-labeled F-actin, steady-state fluorescence dose response; parameters: species or system rabbit; details: for effect on PFA (pyrene) fluorescence, dose-response: 2.5–150 μM compound
# T3 construct: Rabbit skeletal F-actin was prepared as described previously from acetone powder; from tissue; host or cells: rabbit skeletal muscle (acetone powder)
# [5] = molecular target: T4, PFA.C.S1 complex (F-actin with cardiac S1) (Oryctolagus cuniculus, UniProt P68135); assay: Steady-state S1 binding to and ATP-induced dissociation from the PFA.compound complex; assay type: biochemical, bovine; details: 0.7:1 S1:actin, rigor; compound 100 μM except Flu and Dan 50 μM, Mit 10 μM
# T4 construct: Rabbit skeletal F-actin was prepared as described previously from acetone powder; tissue Pelfreez Biologicals (bovine left ventricular muscle); host or cells: rabbit skeletal muscle (actin); bovine left ventricular muscle (myosin S1)
# Procedure: We then added Mg.ATP and measured PFA fluorescence (Fig. 8B, peach bars).
# Fluorescence spectra of 2 μM PFA in F-Mg buffer were acquired with a Cary spectrophotometer. The sample was placed in a cuvette in a temperature-controlled holder and excited with a Xenon flash lamp at 365 nm with 5 nm slit width. Emission fluorescence intensity was acquired and averaged for 30 s at 407 nm with a 10 nm slit width. […] Fluorescence intensity (F) was corrected for each compound's emission at 407 nm.
# Fcalc was determined from normalized fluorescence intensity:(5) Fcalc=(FCompound+F0.7S1)
# [6] = test system: PFA.S1 (pyrene-labeled F-actin with cardiac myosin S1); assay: Steady-state PFA fluorescence with myosin-binding drugs (PFA, PFA.S1, plus MgATP); assay type: biochemical, bovine; details: 5 μM drug; for change in PFA fluorescence: 2 μM PFA, no S1; for PFA fluorescence restored by addition of MgATP: 2 μM PFA.S1, 1 mM MgATP, 95% without compound; for effect on S1-induced decrease in pyrene fluorescence: S1 equimolar to actin, no ATP
# Procedure: as §1
# [7] = test system: skeletal and cardiac actin; parameters: method as in PMID 32788211; details: cited from earlier work; for isoform-specific differences in actin polymerization: skeletal versus cardiac actin
# [8] = clinical use, cited from earlier work; for liver toxicity: ref 26 for Dan
# [9] = 2 μM PFA, 200-500 μM MgATP, read-out: Kd of compound binding to PFA in the presence of MgATP
# [10] = 2 μM PFA, no MgATP, fits to the Hill equation, read-out: apparent dissociation equilibrium constant, Kd, of compound binding to PFA
SMILES,increase in K1 versus control [2] [factor],overall category of compound effect [2],"effect on PFA (pyrene) fluorescence, dose-response ([4]; 2 μM PFA)","decrease in PFA fluorescence of PFA.compound.S1, experimental versus calculated (Fcalc) [5]",polymerization rate of skeletal and cardiac actin [7],also measured
"O=P([O-])([O-])OP(=O)([O-])[O-].[K+].[K+].[K+].[K+] [potassium pyrophosphate (PPi), potassium pyrophosphate]",–,–,–,–,–,restoration of pyrene fluorescence of PFA-S1 [1]: almost completely restored
CC(C)C(=O)Nc1ccc([N+](=O)[O-])c(C(F)(F)F)c1 [Flu],≥ 2,severe (severe effects to be >3-fold),decreased PFA fluorescence with hyperbolic dependence,smaller decrease in PFA fluorescence than expected,–,rate of dissociation of S1 from rigor actin-S1 complex versus control [3]: No significant change; Kd [4]: 39.6 ± 22 µM; effect of MgATP on fluorescence of PFA–compound complexes ([4]; 200-500 μM MgATP): MgATP relieves the fluorescence inhibition
"COC(=O)N1CCN(Cc2cccc(NC(=O)Nc3ccc(C)nc3)c2F)CC1 [OM, omecamtiv mecarbil]",–,–,–,–,–,change in PFA fluorescence [6]: 4%; PFA fluorescence restored by addition of MgATP [6]: 65%; effect on S1-induced decrease in pyrene fluorescence [6]: no effect
COc1ccccc1OCCNCC(O)COc1cccc2[nH]c3ccccc3c12 (stereo not shown) [Car],–,mild (mild effects to be <1.5-fold),minimal effects,greater decrease in PFA fluorescence,reduced the polymerization rate,"decrease in rate constant k+2 for isomerization versus control [2]: < 1.5 fold; effect on K1 (shown as 1/K1), category [2]: mild (mild effects to be <1.5-fold)"
OCCN1CCN(CCCN2c3ccccc3Sc3ccc(C(F)(F)F)cc32)CC1 [Flp],–,–,–,–,reduced the polymerization rate,liver toxicity [8]: cause liver toxicity
CSc1ccc2c(c1)N(CCC1CCCCN1C)c1ccccc1S2 (stereo not shown) [Thi],–,–,–,–,reduced the polymerization rate,isoform-specific differences in actin polymerization [7]: showed isoform-specific differences; liver toxicity [8]: cause liver toxicity
CCCCCNC(=N)N/N=C/c1c[nH]c2ccc(OC)cc12 [Teg],≥ 2,severe (severe effects to be >3-fold),minimal effects,smaller decrease in PFA fluorescence than expected,–,isoform-specific differences in actin polymerization [7]: showed isoform-specific differences; heart failure ([8]; FDA caution or withdrawal): can contribute to heart failure
c1ccc2c(c1)Nc1ccccc1S2 [Phn],≥ 2,severe (severe effects to be >3-fold),minimal effects,greater decrease in PFA fluorescence,–,isoform-specific differences in actin polymerization [7]: showed isoform-specific differences
"CC(C)n1c(=O)cc(N[C@@H](C)c2ccccc2)[nH]c1=O [Mava, mavacamten]",–,–,–,–,–,change in PFA fluorescence [6]: 1%; PFA fluorescence restored by addition of MgATP [6]: 97%; effect on S1-induced decrease in pyrene fluorescence [6]: no effect
OC(c1cc(C(F)(F)F)nc2c(C(F)(F)F)cccc12)C1CCCCN1 (stereo not shown) [Mef],≥ 2,severe (severe effects to be >3-fold),decreased PFA fluorescence with hyperbolic dependence,smaller decrease in PFA fluorescence than expected,did not have significant effects,"Kd [4, 9]: 89 ± 28.4 µM; Kd [4, 10]: 20 ± 10 µM; effect of MgATP on fluorescence of PFA–compound complexes ([4]; 200-500 μM MgATP): increased PFA fluorescence in the presence of MgATP; also recorded: MgATP relieves the fluorescence inhibition"
"O=C1CN(/N=C/c2ccc(-c3ccc([N+](=O)[O-])cc3)o2)C(O)=N1 [Dan, Dantrolene]",≥ 2,severe (severe effects to be >3-fold),decreased PFA fluorescence with hyperbolic dependence,smaller decrease in PFA fluorescence than expected,did not have significant effects,"rate of dissociation of S1 from rigor actin-S1 complex versus control [3]: No significant change; Kd [4, 10]: 17.5 ± 6 µM; liver toxicity [8]: causes hepatoxicity"
C=CCc1ccc(O)c(-c2ccc(O)c(CC=C)c2)c1 [Hon],–,mild (mild effects to be <1.5-fold),minimal effects,no effect,did not have significant effects,"decrease in rate constant k+2 for isomerization versus control [2]: < 1.5 fold; effect on K1 (shown as 1/K1), category [2]: mild (mild effects to be <1.5-fold)"
"O=C1c2c(O)ccc(O)c2C(=O)c2c(NCCNCCO)ccc(NCCNCCO)c21 [Mit, mitoxantrone]",≥ 2,severe (severe effects to be >3-fold),decreased PFA fluorescence with hyperbolic dependence,smaller decrease in PFA fluorescence than expected,reduced the polymerization rate,"rate of dissociation of S1 from rigor actin-S1 complex versus control [3]: No significant change; Kd [4, 9]: 24.7 ± 5.8 µM; Kd [4, 10]: 7.2 ± 1.2 µM; effect of MgATP on fluorescence of PFA–compound complexes ([4]; 200-500 μM MgATP): increased PFA fluorescence in the presence of MgATP; also recorded: MgATP relieves the fluorescence inhibition"
